Assay results from patent US10793559B2, “Chemical compounds” (GlaxoSmithKline Intellectual Property Development Limited, priority 2016, dated 2020).
Counter-ions that a name gives are not always drawn.

Tests used:
[1] = test system: amphetamine-induced psychosis; settings: Law et al. 2012; cited from earlier work
[2] = target: PI3K-Delta (Homo sapiens, UniProt O00329); assay: PI3K HTRF assay (PI3K Delta); format: biochemical; settings: PI3K-Delta 1.5 nM, 80 μM ATP, 10 μM PIP2 final, read-out: mean pIC50 in the PI3K Delta assay (converted)
Description: Biological Data PI3K HTRF Assay
The binding of compounds to PI3K-alpha/beta/delta/gamma is determined by homogeneous time resolved fluorescence (HTRF) assays as follows;
Briefly, solid compound is dissolved in 100% DMSO at a concentration of 2 mM. Dilutions are prepared in 100% DMSO using a 1 in 4 serial step dilution. The dilutions are transferred to black low volume Greiner assay plates ensuring that the DMSO concentration is constant across the plate at 1% (0.1 ul/well).
PI3K Reaction Buffer (contains 50 mM HEPES pH7.0 (NaOH), 150 mM NaCl, 10 mM MgCl2, 2.3 mM sodium cholate, 10 μM CHAPS made up in milliQ water). Fresh DTT is added at a final concentration of 1 mM on the day of use. Wortmannin at a concentration sufficient to produce 100% inhibition (8.33e-6 M) is added to column 18 of compound plates.
Enzyme solutions: 1× PI3K assay Buffer containing: • 550 pM PI3K-Alpha enzyme (275 pM final assay concentration) • 800 pM PI3K-Beta enzyme (400 pM final assay concentration) • 3 nM PI3K-Delta enzyme (1.5 nM final assay concentration) • 10 nM PI3K-Gamma enzyme (5 nM final assay concentration)
These concentrations are optimal to achieve a signal:background of between 1.5-4.5. The enzyme solution is added to columns 1-24 (3 ul/well) and plates are incubated for 15 minutes at room temperature.
Substrate solution: 1× PI3K assay buffer containing: • PI3K-Alpha: 500 μM ATP, 20 μM PIP2 and 120 nM biotin-PIP3. (Final assay concentrations are 250 μM ATP, 10 μM PIP2 (both at Km) and 40 nM biotin-PIP3) • PI3K-Beta: 800 μM ATP, 20 μM PIP2 and 120 nM biotin-PIP3. (Final assay concentrations are 400 μM ATP, 10 μM PIP2 (both at Km) and 40 nM biotin-PIP3) • PI3K-Delta: […], 20 μM PIP2 and 120 nM biotin-PIP3. (Final assay concentrations are 80 μM ATP, 10 μM PIP2 (both at Km) and 40 nM biotin-PIP3) • PI3K-Gamma: 30 μM ATP, 20 μM PIP2 and 120 nM biotin-PIP3.
This is added to all wells and plates are incubated for 1 hour at room temperature.
Detection solution: PI3K Detection Buffer (contains 50 mM HEPES pH7.0 (HCl), 150 mM NaCl, 2.3 mM sodium cholate, 10 μM CHAPS, 240 mM potassium fluoride) containing 2 mM DTT (2× final concentration), 90 nM GRP-1 PH domain, 300 nM Streptavidin-APC and 24 nM Europium-anti-GST (6× final concentrations)
This is mixed left at room temperature (protected from light).
STOP solution: PI3K STOP Buffer (contains 50 mM HEPES pH7.0 (HCl), 150 mM NaCl, 2.3 mM sodium cholate, 10 μM CHAPS, 150 mM EDTA).
Detection solution is diluted 1:1 with STOP solution and added to all wells (3 ul/well). Plates are covered and incubated on the bench for 45-60 minutes. Plates are read on a PerkinElmer Envision, measuring TR-FRET between the complex formed between the GST-tagged PH domain and biotinylated PIP3 which both recruit fluorophores (Europium-labelled anti-GST & Strep-APC respectively). […], this complex is disrupted by the competitive action of non-biotinylated PIP3 (formed in the assay by the phosphorylation of PIP2 by the kinase & ATP). From this, the ratio of acceptor/donor was calculated (Aex=317 nm, Aem donor=615 nm, em acceptor=665 nm) and used for data analysis.

Chain of PI3K-Delta (O00329 whole entry): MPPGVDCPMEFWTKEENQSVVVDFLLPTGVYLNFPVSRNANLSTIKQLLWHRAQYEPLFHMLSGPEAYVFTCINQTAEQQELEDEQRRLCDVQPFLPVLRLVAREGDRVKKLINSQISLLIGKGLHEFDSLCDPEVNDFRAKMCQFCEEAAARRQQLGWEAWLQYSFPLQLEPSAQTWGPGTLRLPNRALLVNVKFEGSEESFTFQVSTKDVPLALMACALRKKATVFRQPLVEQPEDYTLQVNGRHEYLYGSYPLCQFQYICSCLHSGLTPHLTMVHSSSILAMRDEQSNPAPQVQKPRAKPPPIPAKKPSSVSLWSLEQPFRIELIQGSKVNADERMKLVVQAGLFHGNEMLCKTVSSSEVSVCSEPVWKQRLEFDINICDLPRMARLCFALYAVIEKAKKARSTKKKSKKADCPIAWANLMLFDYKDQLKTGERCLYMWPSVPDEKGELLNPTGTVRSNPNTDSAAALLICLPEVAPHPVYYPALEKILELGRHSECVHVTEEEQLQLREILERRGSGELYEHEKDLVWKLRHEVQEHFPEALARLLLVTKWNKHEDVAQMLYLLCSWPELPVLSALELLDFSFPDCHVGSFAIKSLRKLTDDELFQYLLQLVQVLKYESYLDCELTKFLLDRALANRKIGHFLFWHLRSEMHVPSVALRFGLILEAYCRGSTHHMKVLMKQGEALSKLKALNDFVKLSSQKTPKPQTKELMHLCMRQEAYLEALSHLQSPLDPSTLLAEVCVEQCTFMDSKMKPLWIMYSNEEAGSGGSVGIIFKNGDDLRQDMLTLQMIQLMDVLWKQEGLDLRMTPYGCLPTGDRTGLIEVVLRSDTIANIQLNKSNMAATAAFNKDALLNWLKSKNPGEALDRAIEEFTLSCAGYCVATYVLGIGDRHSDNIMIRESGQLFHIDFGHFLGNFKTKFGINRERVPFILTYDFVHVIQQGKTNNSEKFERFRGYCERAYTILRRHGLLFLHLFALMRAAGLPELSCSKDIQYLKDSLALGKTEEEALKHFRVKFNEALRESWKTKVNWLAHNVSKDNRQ
Chain of PI3K-Delta (P27986 whole entry partner): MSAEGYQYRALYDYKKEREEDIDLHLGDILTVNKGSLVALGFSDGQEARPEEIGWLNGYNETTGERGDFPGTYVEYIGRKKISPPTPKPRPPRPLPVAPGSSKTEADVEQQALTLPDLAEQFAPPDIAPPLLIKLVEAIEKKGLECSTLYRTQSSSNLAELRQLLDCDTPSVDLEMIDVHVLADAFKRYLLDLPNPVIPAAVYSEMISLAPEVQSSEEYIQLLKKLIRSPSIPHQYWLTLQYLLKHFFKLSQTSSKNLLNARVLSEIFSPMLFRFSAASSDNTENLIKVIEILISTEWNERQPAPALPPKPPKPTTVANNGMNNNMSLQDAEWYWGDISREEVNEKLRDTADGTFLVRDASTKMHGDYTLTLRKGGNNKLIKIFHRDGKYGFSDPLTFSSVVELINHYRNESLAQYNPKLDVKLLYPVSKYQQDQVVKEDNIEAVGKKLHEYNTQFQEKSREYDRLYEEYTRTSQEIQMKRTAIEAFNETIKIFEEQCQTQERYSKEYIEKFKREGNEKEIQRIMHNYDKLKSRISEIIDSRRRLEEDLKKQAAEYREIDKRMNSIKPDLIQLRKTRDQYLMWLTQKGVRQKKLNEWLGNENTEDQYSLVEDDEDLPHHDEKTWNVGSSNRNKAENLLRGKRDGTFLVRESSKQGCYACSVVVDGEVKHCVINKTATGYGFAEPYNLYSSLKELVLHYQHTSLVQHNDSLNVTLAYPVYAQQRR

For `Cc1ccccc1-n1c(Cn2cnc3c(N)ncnc32)nc2cccc(C)c2c1=O` [IC87114], the “efficacy in a mouse model of amphetamine-induced psychosis” value [1] is given as “remarkable efficacy”.

For `COc1ncc(N2CCOCC2)cc1S(=O)(=O)Nc1ccnc(-c2ccc(CN3CCN(C4CCC4)CC3)cc2F)c1` [Example 16, N-(2-(4-((4-Cyclobutylpiperazin-1-yl)methyl)-2-fluorophenyppyridin-4-yl)-2-methoxy-5-morpholinopyridine-3-sulfonamide, 2.5 formic acid salt], the IC50 [2] was no more than 3.16 nM.
